Results: patent US9963467B2, “Boronic acid derivatives and therapeutic uses thereof” (Rempex Pharmaceuticals, Inc., priority 2014, dated 2018)

Columns and labels:
[1] = system: KP1004 (KPC-2); test: Biapenem potentiation (MPC@1), KP1004; settings: BLI with biapenem at 1 μg/mL
[2] = system: KP1010 (SHV-12); test: Tigemonam potentiation (MPC@4), KP1010; assay type: cell-based
[3] = biological target: Pa AmpC (Pseudomonas aeruginosa, UniProt P24735); test: Ki, nitrocefin cleavage by purified enzyme, Pa AmpC; assay type: biochemical; settings: nitrocefin reporter substrate; read-out: Ki (Pa AmpC, NCF)
Pa AmpC, sequence (P24735 27-397): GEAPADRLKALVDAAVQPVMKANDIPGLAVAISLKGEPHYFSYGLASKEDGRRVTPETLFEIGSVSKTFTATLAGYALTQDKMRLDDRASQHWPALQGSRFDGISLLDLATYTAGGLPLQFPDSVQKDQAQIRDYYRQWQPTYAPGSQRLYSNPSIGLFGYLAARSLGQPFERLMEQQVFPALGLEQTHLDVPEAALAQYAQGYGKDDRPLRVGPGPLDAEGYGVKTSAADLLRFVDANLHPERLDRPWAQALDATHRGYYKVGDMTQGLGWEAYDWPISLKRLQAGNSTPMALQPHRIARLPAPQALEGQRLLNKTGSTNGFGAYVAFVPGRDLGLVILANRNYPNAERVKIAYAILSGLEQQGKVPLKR
Procedure, shortened: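 Preincubation 10 min RT, purified enzyme with inhibitor series in reaction buffer; reporter nitrocefin; kinetic A490, 10-sec intervals, 10 min; Ki calculated.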

[4] = system: ec302 (TEM-10); test: Tigemonam potentiation (MPC@4), ec302; assay type: cell-based
[5] = system: KP1086 (OXA-48); test: Biapenem potentiation (MPC@1), KP1086; settings: BLI with biapenem at 1 μg/mL
[6] = biological target: KPC-2 (Klebsiella pneumoniae, UniProt Q9F663); test: Ki, nitrocefin cleavage by purified enzyme, KPC-2; assay type: biochemical; settings: nitrocefin reporter substrate; read-out: Ki (KPC-2, NCF)
KPC-2, sequence (Q9F663 25-293, looked up, species assumed): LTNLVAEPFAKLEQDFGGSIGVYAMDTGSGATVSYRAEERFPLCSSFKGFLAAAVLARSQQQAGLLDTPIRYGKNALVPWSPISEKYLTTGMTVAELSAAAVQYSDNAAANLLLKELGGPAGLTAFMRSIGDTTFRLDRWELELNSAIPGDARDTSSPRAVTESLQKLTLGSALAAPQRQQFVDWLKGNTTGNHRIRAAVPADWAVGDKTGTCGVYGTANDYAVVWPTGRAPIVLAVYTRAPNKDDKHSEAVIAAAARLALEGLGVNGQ
Procedure, shortened: (§1)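 Purified enzyme was preincubated with a range of inhibitor concentrations in reaction buffer for 10 min at room temperature. Nitrocefin was then added and its cleavage followed at 490 nm every 10 sec for 10 min.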

[7] = system: ECL1002; test: Tigemonam potentiation (MPC@4), ECL1002; assay type: cell-based; settings: BLI with tigemonam at 4 μg/mL
[8] = system: KP1009 (CTX-M-15); test: organism not typed; assay type: cell-based
[9] = system: KP1005 (CTX-M-14); test: Aztreonam potentiation (MPC@4), KP1005; assay type: cell-based; settings: BLI with aztreonam at 4 μg/mL
[10] = system: ec308 (SHV-5); test: Tigemonam potentiation (MPC@4), ec308; assay type: cell-based
[11] = biological target: P99 (Enterobacter cloacae, UniProt P05364); test: Ki, nitrocefin cleavage by purified enzyme, P99; assay type: biochemical; settings: nitrocefin reporter substrate; read-out: Ki (P99, NCF)
P99, sequence (P05364 21-381): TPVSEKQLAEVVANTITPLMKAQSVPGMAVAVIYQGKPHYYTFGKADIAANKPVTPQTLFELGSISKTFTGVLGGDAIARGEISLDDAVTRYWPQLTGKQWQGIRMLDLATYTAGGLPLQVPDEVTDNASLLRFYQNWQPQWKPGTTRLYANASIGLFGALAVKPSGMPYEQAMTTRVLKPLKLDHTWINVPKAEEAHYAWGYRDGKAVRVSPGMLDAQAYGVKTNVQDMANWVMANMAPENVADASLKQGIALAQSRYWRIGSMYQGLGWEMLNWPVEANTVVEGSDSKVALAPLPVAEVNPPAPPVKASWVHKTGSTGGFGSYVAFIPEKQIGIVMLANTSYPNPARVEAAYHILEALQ
Procedure, shortened: as §1

[12] = Monomer content of pH adjusted aqueous solutions (LC-UV); assay type: physicochemical; settings: 1 mg/mL aqueous salt solution, pH adjusted to 7.6 to 8, LC-UV
Procedure: Boronic acid containing compounds are known to undergo oligomerization. The presence of oligomers can greatly complicate drug development, as they represent new chemical species whose content must be controlled and qualified by testing in toxoicology studies. The monomer content of compounds was evaluated by adjusting aqueous solutions to physiological pH at various concentrations. The monomer content of pH adjusted solutions was measured using LC-UV. Test compounds were weighed out into a 1.5 mL Eppendorf tube. A solution of water was prepared in 1.00 mg/mL, 10.0 mg/mL or 100 mg/mL concentrations of the compound based on active fraction. A volume 20 uL was subtracted to allow room for addition of acid or base to adjust pH. The solution pH was measured. The pH was then adjusted through addition of acid or base as necessary until the reading was in the 7.6 to 8 range. A final pH measurement was made after ensuring all the compound was in solution. The solution was injected onto LC-UV in 0.1 uL to 5 uL volume within less than half an hour after the time the sample was prepared. Elution was done using 0.1% TFA in water for mobile phase A and 0.085% TFA in methanol for mobile phase B on an Excel ACE 5 Super C18 2.1×100 mm column at 0.6 ml/min flow rate with 9 min gradient, 3.9 minute hold at 90% B and 18 minute run time. The absorption was measured at 220, 254 and 300 nm with a 4 nm bandwidth.

[13] = system: ec302 (TEM-10); test: Aztreonam potentiation (MPC@4), ec302; assay type: cell-based; settings: BLI with aztreonam at 4 μg/mL
[14] = biological target: OXA-48 (Klebsiella pneumoniae, UniProt Q6XEC0); test: Ki, nitrocefin cleavage by purified enzyme, OXA-48; assay type: biochemical; settings: nitrocefin reporter substrate; read-out: Ki (OXA-48, NCF)
OXA-48, sequence (Q6XEC0 23-265, looked up, species assumed): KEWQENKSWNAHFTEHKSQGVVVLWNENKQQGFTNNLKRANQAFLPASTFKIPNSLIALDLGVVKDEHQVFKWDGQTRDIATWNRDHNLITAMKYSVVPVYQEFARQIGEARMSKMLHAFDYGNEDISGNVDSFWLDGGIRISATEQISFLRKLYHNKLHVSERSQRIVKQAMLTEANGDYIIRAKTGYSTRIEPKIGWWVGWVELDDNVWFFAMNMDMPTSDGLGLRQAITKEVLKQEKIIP
Procedure, shortened: as §1

[15] = system: EC1010 (CMY-6); test: Tigemonam potentiation (MPC@4), EC1010; assay type: cell-based; settings: BLI with tigemonam at 4 μg/mL
[16] = biological target: SHV-12 (Klebsiella pneumoniae, UniProt P0AD64, E235K/G234S/L31Q); test: Ki, nitrocefin cleavage by purified enzyme, SHV-12; assay type: biochemical; settings: nitrocefin reporter substrate; read-out: Ki (SHV-12, NCF)
SHV-12, sequence (P0AD64 22-286 L31Q/G234S/E235K): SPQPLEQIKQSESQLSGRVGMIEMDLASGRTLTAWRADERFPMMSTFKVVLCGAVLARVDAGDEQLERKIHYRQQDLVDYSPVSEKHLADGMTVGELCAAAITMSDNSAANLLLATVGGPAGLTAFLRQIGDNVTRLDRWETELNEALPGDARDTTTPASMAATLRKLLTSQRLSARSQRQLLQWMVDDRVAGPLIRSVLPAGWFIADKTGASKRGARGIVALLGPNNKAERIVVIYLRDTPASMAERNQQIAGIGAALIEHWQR
Procedure, shortened: as §1

[17] = system: ECL1002; test: Aztreonam potentiation (MPC@4), ECL1002; assay type: cell-based; settings: BLI with aztreonam at 4 μg/mL
[18] = system: KP1009 (CTX-M-15); test: Tigemonam potentiation (MPC@4), KP1009; assay type: cell-based; settings: BLI with tigemonam at 4 μg/mL
[19] = biological target: CTX-M-14 (Escherichia coli, UniProt Q9L5C7); test: Ki, nitrocefin cleavage by purified enzyme, CTX-M-14; assay type: biochemical; settings: nitrocefin reporter substrate; read-out: Ki (CTX-M-14, NCF)
CTX-M-14, sequence (Q9L5C7 29-291): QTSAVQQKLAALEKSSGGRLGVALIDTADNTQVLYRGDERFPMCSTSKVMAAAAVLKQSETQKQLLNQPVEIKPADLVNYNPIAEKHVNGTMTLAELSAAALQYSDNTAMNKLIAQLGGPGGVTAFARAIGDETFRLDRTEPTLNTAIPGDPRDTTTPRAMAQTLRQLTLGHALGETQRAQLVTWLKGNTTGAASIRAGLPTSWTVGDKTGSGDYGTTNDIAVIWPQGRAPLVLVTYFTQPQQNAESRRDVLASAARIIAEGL
Procedure, shortened: as §1

[20] = system: KP1005 (CTX-M-14); test: Tigemonam potentiation (MPC@4), KP1005; assay type: cell-based; settings: BLI with tigemonam at 4 μg/mL
[21] = system: KP1004 (KPC-2); test: Aztreonam potentiation (MPC@4), KP1004; assay type: cell-based; settings: BLI with aztreonam at 4 μg/mL
[22] = system: EC1010 (CMY-6); test: organism not typed; assay type: cell-based
[23] = system: ec308 (SHV-5); test: Aztreonam potentiation (MPC@4), ec308; assay type: cell-based; settings: BLI with aztreonam at 4 μg/mL

Row | Compound | BPM MPC1 KP1004 KPC-2 [1] | TIG MPC4 SHV-12 KP1010 [2] | Ki [3] | TIG MPC4 TEM-10 ec302 [4] | BPM MPC1 OXA-48 KP1086 [5] | Ki [6] | TIG MPC4 ECL1002 [7] | AZT MPC4 CTX-M-15 KP1009 [8] | AZT MPC4 CTX-M-14 KP1005 [9] | TIG MPC4 SHV-5 ec308 [10] | Ki [11] | AZT MPC4 TEM-10 ec302 [13] | Ki [14] | TIG MPC4 CMY-6 EC1010 [15] | Ki [16] | AZT MPC4 ECL1002 [17] | TIG MPC4 CTX-M-15 KP1009 [18] | Ki [19] | TIG MPC4 CTX-M-14 KP1005 [20] | AZT MPC4 CMY-6 EC1010 [22] | further results
1 | CSCC(=O)N[C@H]1Cc2ccc(Sc3nnc(N)s3)c(C(=O)O)c2OB1O [Compound 21, (R)-7-(5-amino-1,3,4-thiadiazol-2-ylthio)-2-hydroxy-3-(2-(methylthio)acetamido)-3,4-dihydro-2H-benzo[e][1,2]oxaborinine-8-carboxylic acid] | Y (MIC of 1 μg/mL to 10 μg/mL) | X (key: X: MIC of less than 1 μg/mL; Y: MIC of 1 μg/mL to 10 μg/mL; Z: MIC of greater than 10 μg/mL) | > 10 nM | Y (key: X: MIC of less than 1 ng/mL; Y: MIC of 1 μg/mL to 10 μg/mL; Z: MIC of greater than 10 μg/mL) | Z (MIC of greater than 10 μg/mL) | > 10 nM | Y (MIC of 1 μg/mL to 10 μg/mL) | Y (key: X: MIC of less than 1 ng/mL; Y: MIC of 1 μg/mL to 10 μg/mL; Z: MIC of greater than 10 μg/mL) | Y (MIC of 1 μg/mL to 10 μg/mL) | X (key: X: MIC of less than 1 μg/mL; Y: MIC of 1 μg/mL to 10 μg/mL; Z: MIC of greater than 10 μg/mL) | > 10 nM | Y (MIC of 1 μg/mL to 10 μg/mL) | < 1 nM | Y (MIC of 1 μg/mL to 10 μg/mL) | < 1 nM | Y (MIC of 1 μg/mL to 10 μg/mL) | Y (MIC of 1 μg/mL to 10 μg/mL) | < 1 nM | Y (MIC of 1 μg/mL to 10 μg/mL) | Y (key: X: MIC of less than 1 ng/mL; Y: MIC of 1 μg/mL to 10 μg/mL; Z: MIC of greater than 10 μg/mL) | % Monomer in 1 mg/mL salt solution [12]: 98.1%; AZT MPC4 KPC-2 KP1004 [21]: Y (MIC of 1 μg/mL to 10 μg/mL)
2 | O=CN[C@H]1Cc2ccc(F)c(C(=O)O)c2OB1O [Compound 6, (R)-7-fluoro-3-formamido-2-hydroxy-3,4-dihydro-2H-benzo[e][1,2]oxaborinine-8-carboxylic acid] | X (MIC of less than 1 μg/mL) | Y (key: X: MIC of less than 1 ng/mL; Y: MIC of 1 μg/mL to 10 μg/mL; Z: MIC of greater than 10 μg/mL) | > 10 nM | Z (key: X: MIC of less than 1 ng/mL; Y: MIC of 1 μg/mL to 10 μg/mL; Z: MIC of greater than 10 μg/mL) | Y (MIC of 1 μg/mL to 10 μg/mL) | > 10 nM | X (MIC of less than 1 μg/mL) | Y (key: X: MIC of less than 1 ng/mL; Y: MIC of 1 μg/mL to 10 μg/mL; Z: MIC of greater than 10 μg/mL) | Y (MIC of 1 μg/mL to 10 μg/mL) | Y (key: X: MIC of less than 1 ng/mL; Y: MIC of 1 μg/mL to 10 μg/mL; Z: MIC of greater than 10 μg/mL) | > 10 nM | Y (MIC of 1 μg/mL to 10 μg/mL) | 1 to 10 nM | X (MIC of less than 1 μg/mL) | < 1 nM | Y (MIC of 1 μg/mL to 10 μg/mL) | Y (MIC of 1 μg/mL to 10 μg/mL) | < 1 nM | Y (MIC of 1 μg/mL to 10 μg/mL) | Y (key: X: MIC of less than 1 ng/mL; Y: MIC of 1 μg/mL to 10 μg/mL; Z: MIC of greater than 10 μg/mL) | AZT MPC4 SHV-5 ec308 [23]: Y (MIC of 1 μg/mL to 10 μg/mL)
3 | CSCC(=O)N[C@@H]1Cc2ccc(F)c(C(=O)O)c2OB1O [Compound 31, (S)-7-fluoro-2-hydroxy-3-(2-(methylthio)acetamido)-3,4-dihydro-2H-benzo[e][1,2]oxaborinine-8-carboxylic acid] | X (MIC of less than 1 μg/mL) | X (key: X: MIC of less than 1 μg/mL; Y: MIC of 1 μg/mL to 10 μg/mL; Z: MIC of greater than 10 μg/mL) | > 10 nM | Z (key: X: MIC of less than 1 ng/mL; Y: MIC of 1 μg/mL to 10 μg/mL; Z: MIC of greater than 10 μg/mL) | Z (MIC of greater than 10 μg/mL) | > 10 nM | X (MIC of less than 1 μg/mL) | Y (key: X: MIC of less than 1 ng/mL; Y: MIC of 1 μg/mL to 10 μg/mL; Z: MIC of greater than 10 μg/mL) | Y (MIC of 1 μg/mL to 10 μg/mL) | X (key: X: MIC of less than 1 μg/mL; Y: MIC of 1 μg/mL to 10 μg/mL; Z: MIC of greater than 10 μg/mL) | > 10 nM | Y (MIC of 1 μg/mL to 10 μg/mL) | 1 to 10 nM | Y (MIC of 1 μg/mL to 10 μg/mL) | < 1 nM | Y (MIC of 1 μg/mL to 10 μg/mL) | Y (MIC of 1 μg/mL to 10 μg/mL) | 1 to 10 nM | Y (MIC of 1 μg/mL to 10 μg/mL) | Y (key: X: MIC of less than 1 ng/mL; Y: MIC of 1 μg/mL to 10 μg/mL; Z: MIC of greater than 10 μg/mL) | % Monomer in 1 mg/mL salt solution [12]: 99.7%; AZT MPC4 KPC-2 KP1004 [21]: Y (MIC of 1 μg/mL to 10 μg/mL)
4 | CSCC(=O)N[C@H]1Cc2ccc(SCC3CCNCC3)c(C(=O)O)c2OB1O [Compound 24, (R)-2-hydroxy-3-(2-(methylthio)acetamido)-7-(piperidin-4-ylmethylthio)-3,4-dihydro-2H-benzo[e][1,2]oxaborinine-8-carboxylic acid] | X (MIC of less than 1 μg/mL) | X (key: X: MIC of less than 1 μg/mL; Y: MIC of 1 μg/mL to 10 μg/mL; Z: MIC of greater than 10 μg/mL) | > 10 nM | Z (key: X: MIC of less than 1 ng/mL; Y: MIC of 1 μg/mL to 10 μg/mL; Z: MIC of greater than 10 μg/mL) | Z (MIC of greater than 10 μg/mL) | > 10 nM | Y (MIC of 1 μg/mL to 10 μg/mL) | Y (key: X: MIC of less than 1 ng/mL; Y: MIC of 1 μg/mL to 10 μg/mL; Z: MIC of greater than 10 μg/mL) | Y (MIC of 1 μg/mL to 10 μg/mL) | Y (key: X: MIC of less than 1 ng/mL; Y: MIC of 1 μg/mL to 10 μg/mL; Z: MIC of greater than 10 μg/mL) | > 10 nM | Y (MIC of 1 μg/mL to 10 μg/mL) | < 1 nM | Y (MIC of 1 μg/mL to 10 μg/mL) | 1 to 10 nM | Y (MIC of 1 μg/mL to 10 μg/mL) | Y (MIC of 1 μg/mL to 10 μg/mL) | < 1 nM | Y (MIC of 1 μg/mL to 10 μg/mL) | Y (key: X: MIC of less than 1 ng/mL; Y: MIC of 1 μg/mL to 10 μg/mL; Z: MIC of greater than 10 μg/mL) | % Monomer in 1 mg/mL salt solution [12]: 98.3%; AZT MPC4 KPC-2 KP1004 [21]: Y (MIC of 1 μg/mL to 10 μg/mL)
